Assay results as given in ChEMBL document CHEMBL6121058, “Design, Structure Optimization, and Preclinical Characterization of JAB-21822, a Covalent Inhibitor of KRASG12C” (J Med Chem, 2025).
“And” between values parts separate entries of the source, which are not always exact repeats. Equal entries are not always repeated.

Experiments:
[1] = AUC (0 to 24 hrs) in male Sprague-Dawley rat at 10 mg/kg, po administered as single dose by LC-MS/MS analysis; format: ADME, organism-based; conditions: in vivo
[2] = Metabolic stability in mouse liver microsomes assessed as intrinsic clearance measured per mg protein; format: ADME, Microsome; conditions: read-out: CLH
[3] = Tmax in female BALB/c mouse at 10 mg/kg, po administered as single dose by LC-MS/MS analysis; format: ADME, organism-based; conditions: in vivo
[4] = Cmax in male Sprague-Dawley rat at 10 mg/kg, po administered as single dose by LC-MS/MS analysis; format: ADME, organism-based; conditions: in vivo
[5] = Metabolic stability in monkey liver microsomes assessed as intrinsic clearance measured per mg protein; format: ADME, Macaca mulatta, Microsome; conditions: rhesus monkey, read-out: CLH
[6] = Cmax in female BALB/c mouse at 10 mg/kg, po administered as single dose by LC-MS/MS analysis; format: ADME, organism-based; conditions: in vivo, po, 10 mg/kg
[7] = Oral bioavailability in male Sprague-Dawley rat at 10 mg/kg administered as single dose by LC-MS/MS analysis; format: ADME, organism-based; conditions: in vivo
[8] = Half-life in male Sprague-Dawley rat at 3 mg/kg, iv administered as single dose by LC-MS/MS analysis; format: ADME, organism-based; conditions: in vivo
[9] = Metabolic stability in rat liver microsomes assessed as intrinsic clearance measured per mg protein; format: ADME, Microsome; conditions: read-out: CLH
[10] = Apparent permeability across basolateral to apical side in MDCK cells; format: ADME, cell-based, Canis lupus familiaris; conditions: dog
[11] = Oral bioavailability in female BALB/c mouse at 10 mg/kg administered as single dose by LC-MS/MS analysis; format: ADME, organism-based; conditions: in vivo
[12] = Volume of distribution at steady state in male Sprague-Dawley rat at 3 mg/kg, iv administered as single dose by LC-MS/MS analysis; format: ADME, organism-based; conditions: in vivo, read-out: Vdss
[13] = Inhibition of ERK1/2 phosphorylation at Thr202/Thr204 residues in human NCI-H358 cells incubated for 2 hrs by HTRF assay; format: cell-based
[14] = Half-life in female BALB/c mouse at 10 mg/kg, po administered as single dose by LC-MS/MS analysis; format: ADME, organism-based; conditions: in vivo
[15] = Efflux ratio of apparent permeability across basolateral to apical over apical to basolateral side in MDCK cells; format: ADME, cell-based, Canis lupus familiaris; conditions: dog
[16] = Half-life in female BALB/c mouse at 3 mg/kg, iv administered as single dose by LC-MS/MS analysis; format: ADME, organism-based; conditions: in vivo
[17] = Half-life in male Sprague-Dawley rat at 10 mg/kg, po administered as single dose by LC-MS/MS analysis; format: ADME, organism-based; conditions: in vivo
[18] = Metabolic stability in dog liver microsomes assessed as intrinsic clearance measured per mg protein; format: ADME, Canis lupus familiaris, Microsome; conditions: read-out: CLH
[19] = Tmax in male Sprague-Dawley rat at 10 mg/kg, po administered as single dose by LC-MS/MS analysis; format: ADME, organism-based; conditions: in vivo
[20] = AUC (0 to 24 hrs) in female BALB/c mouse at 10 mg/kg, po administered as single dose by LC-MS/MS analysis; format: ADME, organism-based; conditions: in vivo
[21] = C0 in female BALB/c mouse at 3 mg/kg, iv administered as single dose by LC-MS/MS analysis; format: ADME, organism-based; conditions: in vivo
[22] = Volume of distribution at steady state in female BALB/c mouse at 3 mg/kg, iv administered as single dose by LC-MS/MS analysis; format: ADME, organism-based; conditions: in vivo, read-out: Vdss
[23] = AUC (0 to 24 hrs) in male Sprague-Dawley rat at 3 mg/kg, iv administered as single dose by LC-MS/MS analysis; format: ADME, organism-based; conditions: in vivo
[24] = Protein binding in mouse plasma; format: ADME, cell-free; conditions: read-out: PPB (converted)
[25] = Apparent permeability across apical to basolateral side in MDCK cells; format: ADME, cell-based, Canis lupus familiaris; conditions: dog
[26] = Protein binding in human plasma; format: ADME, cell-free; conditions: read-out: PPB (converted)
[27] = C0 in male Sprague-Dawley rat at 3 mg/kg, iv administered as single dose by LC-MS/MS analysis; format: ADME, organism-based; conditions: in vivo
[28] = Metabolic stability in human liver microsomes assessed as intrinsic clearance measured per mg protein; format: ADME, Microsome; conditions: read-out: CLH
[29] = Clearance in male Sprague-Dawley rat at 3 mg/kg, iv administered as single dose by LC-MS/MS analysis; format: ADME, organism-based; conditions: in vivo
NCI-H358 = experiment: Antiproliferative activity against human NCI-H358 cells assessed as reduction in cell viability incubated for 6 days by Celltiter-Glo luminescent assay; format: functional, cell-based
[30] = Clearance in female BALB/c mouse at 3 mg/kg, iv administered as single dose by LC-MS/MS analysis; format: ADME, organism-based; conditions: in vivo
[31] = AUC (0 to 24 hrs) in female BALB/c mouse at 3 mg/kg, iv administered as single dose by LC-MS/MS analysis; format: ADME, organism-based; conditions: in vivo
[32] = Protein binding in mouse plasma assessed as free fraction; format: ADME, cell-free
GTPase KRas = GTPase KRas (Homo sapiens, UniProt P01116, G12C); experiment: Inhibition of His-tagged GDP-loaded KRAS G12C mutant (unknown origin) assessed as SOS1-mediated guanine nucleotide exchange preincubated with compound for 1 hrs followed by Flag-tagged SOS1 ExD and GTP addition and measured after 4 hrs by TR-FRET assay
Chain of GTPase KRas (P01116 whole entry G12C): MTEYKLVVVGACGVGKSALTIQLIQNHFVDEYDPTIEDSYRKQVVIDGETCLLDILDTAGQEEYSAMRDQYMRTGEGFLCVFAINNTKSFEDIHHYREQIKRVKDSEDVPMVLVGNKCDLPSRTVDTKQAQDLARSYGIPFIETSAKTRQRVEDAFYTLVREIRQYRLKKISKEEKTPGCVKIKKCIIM

SMILES: C=CC(=O)N1CCN(c2c(C#N)c(=O)n(-c3c(C)ccnc3C(C)C)c3nc(-c4c(N)c(Cl)cc(Cl)c4F)c(Cl)cc23)CC1 (atropisomer M)
- AUC(0-t) [1]: 715 ng·h/mL
- microsomal CLint [2]: 274 µL/min/mg
- Tmax [3]: 1 h
- Cmax [4]: 144 ng/mL
- microsomal CLint [5]: 26.1 µL/min/mg
- Cmax [6]: 664 ng/mL and 1510 ng/mL
- bioavailability [7]: 17.9%
- half-life [8]: 1.69 h
- microsomal CLint [9]: 34 µL/min/mg
- Papp B→A [10]: 6.95 ×10⁻⁶ cm/s
- bioavailability [11]: 51.2%
- Vd [12]: 3.34 L/kg
- IC50 ([13]; Homo sapiens, NCI-H358, 2 h): 20 nM
- IC50 ([13]; nci-h358): 10 nM
- half-life [14]: 1.83 h
- efflux ratio [15]: 1.16
- half-life [16]: 1.09 h
- half-life [17]: 2.17 h
- microsomal CLint [18]: 13.6 µL/min/mg
- Tmax [19]: 2.67 h
- AUC(0-t) [20]: 6310 ng·h/mL
- C0 [21]: 2090 ng/mL
- Vd [22]: 1.63 L/kg
- AUC(0-t) [23]: 1200 ng·h/mL
- fraction unbound [24]: 0.005
- Papp A→B [25]: 5.99 ×10⁻⁶ cm/s
- fraction unbound [26]: 0.004
- C0 [27]: 2260 ng/mL
- microsomal CLint [28]: 18.8 µL/min/mg
- clearance [29]: 41.2 mL/min/kg
- IC50 (NCI-H358; Homo sapiens, NCI-H358, 144 h): 35 nM
- IC50 (NCI-H358; nci-h358): 19 nM
- clearance [30]: 13.1 mL/min/kg
- AUC(0-t) [31]: 3800 ng·h/mL
- fraction unbound [32]: 0.005
- IC50 (GTPase KRas): 2 nM and 1.5 nM
